Entries after “also recorded” stand apart in the source; their conditions may differ. *1 amine or outer side, *2 acyl side, *3 side chain or, on linkers, in order; H or OH if unused. Where a SMILES comes first, the peptide text is derived from it. Bridges are numbered along the chain shown (N, C = ends). Roman numbers before positions name the chains, in order. [ ]: non-standard residue; d: D form. Actinocin(9to1) = Cc1c2oc3c(C)ccc(C(=O)[*:1])c3nc-2c(C(=O)[*:2])c(N)c1=O; NMeV = CN[C@H](C(=O)O)C(C)C; Sar = CNCC(=O)O
Tested on: PMN suppressor phenotype (suppression of anti-CD3/CD28-stimulated T cell proliferation)
Experiment: Coculture of PMN with ascites supernatants and anti-CD3/CD28-stimulated T cells; T cell proliferation by [3H] thymidine incorporation
Type: cell-based, human
Details: for effect on ascites-induced PMN-mediated suppression: L-arginine 50 μM-1 mM, NAC 10-25 mM, DNase I 50-100 IU (n=3)
Description: Freshly isolated T cells (1e5) were stimulated with anti-CD3/CD28 Dynabeads (2.5 μl; Thermo Fisher Scientific) and cocultured with autologous PMN (1:1) and ascites supernatants (50% final well volume) in an incubator at 37° C., 5% CO2. After 72 h, [^3H] thymidine (1 μCi per well) was added and allowed to incorporate for 16-18 h. Cells were harvested onto a Filtermat and counted on a Beta counter. Results are expressed as net cpm [calculated by subtracting the average cpm of unstimulated T cells from the average cpm of stimulated T cells].
Where indicated, T cells, PMN, and ascites supernatants underwent various pretreatments. Where indicated, T cells were pretreated for lh with neutralizing antibody against ICAM-I (1-10 μg), IgG1 isotype (1-10 μg), or media (RPMI 1640, 5-10% heat-inactivated FBS, HEPES, sodium pyruvate, non-essential amino acids, and penicillin-streptomycin).
Where indicated, PMN were pretreated for lh with neutralizing antibody against CD11b (1-10 μg), TGF-beta receptor 1 (1-10 μg) or IgG1 isotype (1-10 μg); thapsigargin (THG, 0.5-2 μM), diphenyleneiodonium (DPI, 1-25 μM), N-Formylmethionine-leucyl-phenylalanine (fMLF, 1-100 nM), brefeldin-A (1-10 μg/mL), ER export inhibitor 1 (Exol, 20-75 μM), CI-amidine (10-20 μM), SNARE decoys: TAT-SNAP23 (0.6-0.9 μg/mL), TAT-SYN4 (0.6-0.9 μg/mL), TAT-GST (0.6-0.9 μg/mL) (produced as described in the laboratory of Dr. Kenneth McLeish), puromycin and actinomycin-D (1-5 μg/mL), or with media.
Where indicated, ascites supernatants were pretreated with heat (56° C., lh) to denature heat-labile constituents or proteinase-K (100 μM, 37° C., 12 h) to degrade proteins. Two formulations of compstatin, a peptide C3 inhibitor, were used: CS (250 μM, 30° C., 2 h, Tocris) and Cp40 (1.25-20 μM, 30° C., 2 h), as well as a scramble peptide. In separate studies, ascites supernatants were ultra-centrifuged (100,000g, 4° C., 1.5 h) to separate the membrane-rich (MR-ASC) and membrane-depleted (MD-ASC) fractions. In others, ascites supernatants were pretreated for lh with neutralizing antibody against C5 (0.5-1.0 μg, A217; Quidel, San Diego, Calif.) or C7 (0.5-1.0 μg, A221; Quidel) or IgG1 isotype (0.5-1.0 μg), or with OmCI (0.6-1.2 μM), a peptide C5 inhibitor derived from the saliva of Ornithodoros moubata (35, 36).

[1] = PMN pretreated, brefeldin-A 1-10 μg/mL, Exo1 20-75 μM (n=3)
[2] = added to cocultures, indomethacin 10 μM, zileuton 50 μM, 1-MT 100 μM
[3] = PMN pretreated, fMLF 100 nM, THG 1 μM, DPI 1 μM (n=7)
[4] = PMN pretreated for 1 h prior to coculture, puromycin 1 μg, D-actinomycin 1 μg (n=8)

Molecule: CC[C@H](C)[C@H](N)C(=O)N[C@H]1CSSC[C@@H](C(=O)N[C@H](C(N)=O)[C@@H](C)O)NC(=O)[C@H](CCCN=C(N)N)NC(=O)[C@H](Cc2cnc[nH]2)NC(=O)[C@H](Cc2cnc[nH]2)NC(=O)CNC(=O)[C@H](Cc2c[nH]c3ccccc23)NC(=O)[C@H](CC(=O)O)NC(=O)[C@H](CCC(N)=O)NC(=O)[C@H](C(C)C)NC(=O)[C@H](C(C)C)NC1=O [CS, compstatin]
- effect on PMN suppressor phenotype (added to ASC 2 h prior to coculture with PMN and T cells, CS 250 μM, Cp40 20 μM, scramble peptide 20 μM): abrogated the PMN suppressor phenotype
- effect on PMN suppressor phenotype (added to ASC 2 h prior to coculture with PMN and T cells, CS 250 μM, Cp40 20 μM, scramble peptide 20 μM, listed as compstatin): completely abrogated the PMN suppressor phenotype

Molecule: NC(=O)[C@H](CCCN=C(N)CCl)NC(=O)c1ccccc1 [CI-amidine]
- effect on PMN suppressor phenotype (PMN pretreated with CI-amidine (10-20 μM) for 1 h prior to coculture (n=3)): did not abrogate the PMN suppressor phenotype; also recorded: had no effect on the PMN suppressor phenotype

Molecule: COC(=O)c1ccccc1NC(=O)c1ccc(F)cc1 [ER export inhibitor 1]
- effect on PMN suppressor phenotype [1]: abrogated the suppressor phenotype
- effect on PMN suppressor phenotype (PMN pretreated, brefeldin-A 1-10 μg/mL, Exo1 20-75 μM (n=3), listed as Exo1): abrogated the PMN suppressor phenotype

Molecule: CC(c1cc2ccccc2s1)N(O)C(N)=O (stereo not shown) [zileuton]
- effect on PMN suppressor phenotype [2]: did not reverse the phenotype; also recorded: had no effect on the PMN suppressor phenotype

Molecule: N-Formylmethionine-leucyl-phenylalanine [fMLF]
- effect on PMN suppressor phenotype [3]: abrogated the PMN suppressor phenotype; also recorded: prevented induction of the PMN suppressor phenotype

Molecule: COc1ccc(C[C@H](N)C(=O)N[C@H]2[C@@H](O)[C@H](n3cnc4c(N(C)C)ncnc43)O[C@@H]2CO)cc1 [puromycin]
- effect on PMN suppressor phenotype [4]: abrogated the PMN suppressor phenotype; also recorded: variable abrogation of the suppressor phenotype

Molecule: N=C(N)NCCC[C@H](N)C(=O)O [L-arginine]
- effect on ascites-induced PMN-mediated suppression (added to cocultures): did not reverse ascites-induced PMN-mediated suppression; also recorded: had no effect on T cell suppression

Molecule: CC(=O)N[C@@H](CS)C(=O)O [N-acetylcysteine]
- effect on ascites-induced PMN-mediated suppression (added to cocultures): did not reverse ascites-induced PMN-mediated suppression
- effect on ascites-induced PMN-mediated suppression (added to cocultures, listed as NAC): did not reverse suppression

Molecule: Cc1c2oc3c(C)ccc(C(=O)N[C@@H]4C(=O)N[C@H](C(C)C)C(=O)N5CCC[C@H]5C(=O)N(C)CC(=O)N(C)[C@@H](C(C)C)C(=O)O[C@@H]4C)c3nc-2c(C(=O)N[C@@H]2C(=O)N[C@H](C(C)C)C(=O)N3CCC[C@H]3C(=O)N(C)CC(=O)N(C)[C@@H](C(C)C)C(=O)O[C@@H]2C)c(N)c1=O [actinomycin D] (I: T[dV]P[Sar][NMeV] / II: T[dV]P[Sar][NMeV]; ester I:1-I:C, II:1-II:C; linker I:N-II:N via Actinocin(9to1))
- effect on PMN suppressor phenotype [4]: variable abrogation of the suppressor phenotype
- effect on PMN suppressor phenotype (PMN pretreated for 1 h prior to coculture, puromycin 1 μg, D-actinomycin 1 μg (n=8), listed as D-actinomycin): had more variable effects

Molecule: C[C@H]1CCC/C=C/[C@@H]2C[C@H](O)C[C@H]2[C@H](O)/C=C/C(=O)O1 [brefeldin-A]
- effect on PMN suppressor phenotype [1]: abrogated the PMN suppressor phenotype

Molecule: COc1ccc2c(c1)c(CC(=O)O)c(C)n2C(=O)c1ccc(Cl)cc1 [indomethacin]
- effect on PMN suppressor phenotype [2]: had no effect on the PMN suppressor phenotype
- effect on PMN suppressor phenotype (added to cocultures, indomethacin 10 μM, zileuton 50 μM, 1-MT 100 μM, listed as Indomethacin): did not reverse the phenotype

Molecule: C/C=C(/C)C(=O)O[C@H]1C(C)=C2[C@H]([C@@H]1OC(=O)CCCCCCC)[C@@](C)(OC(C)=O)C[C@H](OC(=O)CCC)[C@@]1(O)[C@H]2OC(=O)[C@@]1(C)O [thapsigargin]
- effect on PMN suppressor phenotype [3]: abrogated the PMN suppressor phenotype

Molecule: c1ccc2c(c1)[I+]c1ccccc1-2 [diphenyleneiodonium]
- effect on PMN suppressor phenotype [3]: abrogated the PMN suppressor phenotype
- effect on PMN suppressor phenotype (PMN pretreated, fMLF 100 nM, THG 1 μM, DPI 1 μM (n=7), listed as DPI): did abrogate the PMN suppressor phenotype

Molecule: Cn1cc(CC(N)C(=O)O)c2ccccc21 (racemic) [1-methyl-DL-tryptophan]
- effect on PMN suppressor phenotype [2]: did not reverse the phenotype; also recorded: had no effect on the PMN suppressor phenotype

B1: DNase I: enzyme added to the cocultures to degrade NETs (protein, UniProt P24855 23-282, looked up)
Deoxyribonuclease-1: LKIAAFNIQTFGETKMSNATLVSYIVQILSRYDIALVQEVRDSHLTAVGKLLDNLNQDAPDTYHYVVSEPLGRNSYKERYLFVYRPDQVSAVDSYYYDDGCEPCGNDTFNREPAIVRFFSRFTEVREFAIVPLHAAPGDAVAEIDALYDVYLDVQEKWGLEDVMLMGDFNAGCSYVRPSQWSSIRLWTSPTFQWLIPDSADTTATPTHCAYDRIVVAGMLLRGAVVPDSALPFNFQAAYGLSDQLAQAISDHYPVEVMLK
- effect on ascites-induced PMN-mediated suppression (added to cocultures): did not reverse ascites-induced PMN-mediated suppression; also recorded: had no effect on the PMN suppressor phenotype

B2: OmCI: peptide C5 inhibitor derived from the saliva of Ornithodoros moubata (protein, UniProt Q5YD59 19-168, looked up)
Complement inhibitor: DSESDCTGSEPVDAFQAFSEGKEAYVLVRSTDPKARDCLKGEPAGEKQDNTLPVMMTFKNGTDWASTDWTFTLDGAKVTATLGNLTQNREVVYDSQSHHCHVDKVEKEVPDYEMWMLDAGGLEVEVECCRQKLEELASGRNQMYPHLKDC
- effect on PMN suppressor phenotype (ASC pretreated 1 h with neutralizing Ab against C5 or C7 (0.5-1.0 μg) or OmCI (0.6-1.2 μM) prior to coculture): partially abrogated the PMN suppressor phenotype; also recorded: had a partial abrogating effect on T cell suppression
